In patent US20240409557A1, “5,6-FUSED AND 6,6-FUSED BICYCLIC ALCOHOLS AND ETHERS AND COMPOSITIONS FOR USE AS 15-PROSTAGLANDIN DEHYDROGENASE MODULATORS” (AMGEN INC., priority 2023, published 2024):

Columns and labels:
[1] = molecular target: T1, human recombinant 15-PGDH (Homo sapiens, UniProt P15428); experiment: Recombinant 15-PGDH enzymatic inhibition assay (PGDH-Lumi, NADH signal); assay type: biochemical; settings: recombinant 15-PGDH; 15 min pre-incubation, 60 min reaction with PGE2 and NAD+, NADH signal
T1 sequence (P15428 1-266): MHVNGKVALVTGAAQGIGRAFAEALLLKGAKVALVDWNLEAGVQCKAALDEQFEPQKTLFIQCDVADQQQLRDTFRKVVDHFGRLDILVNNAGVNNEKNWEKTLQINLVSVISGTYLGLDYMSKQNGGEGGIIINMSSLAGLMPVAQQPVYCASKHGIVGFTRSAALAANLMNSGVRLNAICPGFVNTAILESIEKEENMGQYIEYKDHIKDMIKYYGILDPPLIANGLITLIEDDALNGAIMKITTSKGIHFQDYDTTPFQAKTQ
Outline: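 Buffer 50 mM Tris pH 7.5 with 0.01% Tween-20 and […]; compound, 22 two-fold dilutions, pre-incubated with enzyme 15 min before substrate.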

[2] = molecular target: T2, 15-PGDH in A549 cells (Homo sapiens, UniProt P15428); experiment: A549 cellular 15-PGDH assay (PGE2 accumulation, HTRF); assay type: cell-based; settings: interleukin-stimulated, inhibitor 24 hrs, PGE2 by competitive HTRF, read-out: A549 Cell Assay IC50
T2 construct: endogenous in cells; host or cells: A549
T2 sequence (P15428 1-266): T1 sequence (P15428 1-266)
Outline: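 Supernatant PGE2 was quantified by competitive HTRF, in which sample PGE2 blocks FRET between a europium cryptate-labelled antibody and labelled PGE2. It came from A549 epithelial cells induced with IL-13. IC50s were calculated from the inversely proportional signal.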

IC50 [1] [nM]	IC50 [2] [nM]	Compound
0.291	0.666	Cn1cc2cc(-c3ncc4cc([C@]5(O)C[C@@H](C6CC6)C5)sc4n3)cnc2n1 [Compound C99C, cis-3-cyclopropyl-1-(2-(2-methyl-2H-pyrazolo[3,4-b]pyridin-5-yl)thieno[2,3-d]pyrimidin-6-yl)cyclobutanol]
0.3	0.671	Cn1cc2cc(-c3ncc4cc([C@]5(O)C[C@@H](OC(F)(F)F)C5)sc4n3)cnc2n1 [Compound C100C, cis-1-(2-(2-methyl-2H-pyrazolo[3,4-b]pyridin-5-yl)thieno[2,3-d]pyrimidin-6-yl)-3-(trifluoromethoxy)cyclobutanol]
0.496	0.847	Cn1nnc2cc(-c3ccc4cc([C@]5(O)C[C@@H](OC(F)(F)F)C5)sc4n3)cnc21 [Compound C101C, cis-1-(6-(3-methyl-3H-[1,2,3]triazolo[4,5-b]pyridin-6-yl)thieno[2,3-b]pyridin-2-yl)-3-(trifluoromethoxy)cyclobutanol]
0.302	2.43	O[C@]1(c2cc3ccc(-c4cnc5[nH]nnc5c4)nc3s2)C[C@H](C(F)F)C1 [Compound C103C, cis-3-(difluoromethyl)-1-(6-(3H-[1,2,3]triazolo[4,5-b]pyridin-6-yl)thieno[2,3-b]pyridin-2-yl)cyclobutanol]
0.294	0.788	Cn1cc2cc(-c3ccc4nc([C@]5(O)C[C@@H](OC(F)(F)F)C5)sc4n3)cnc2n1 [Compound C105C, cis-1-(5-(2-methyl-2H-pyrazolo[3,4-b]pyridin-5-yl)[1,3]thiazolo[5,4-b]pyridin-2-yl)-3-(trifluoromethoxy)cyclobutanol]
0.49	0.989	Cn1cc2cc(-c3ncc4cc(C5(O)CC6(CC6)C5)sc4n3)cnc2n1 [Compound C107, 5-(2-(2-methyl-2H-pyrazolo[3,4-b]pyridin-5-yl)thieno[2,3-d]pyrimidin-6-yl)spiro[2.3]hexan-5-ol]
0.671	1.25	Cn1cc2cc(-c3ccc4nc(C5(O)CC6(CC6)C5)sc4n3)cnc2n1 [Compound C108, 5-(5-(2-methyl-2H-pyrazolo[3,4-b]pyridin-5-yl)[1,3]thiazolo[5,4-b]pyridin-2-yl)spiro [2.3]hexan-5-ol]
3.35	8.48	Cn1cc2cc(-c3ncc4nc([C@]5(O)C[C@@H](C(F)F)C5)sc4n3)cnc2n1 [Compound C109C]
1.09	3.95	Cn1nnc2cc(-c3ncc4cc([C@]5(O)C[C@@H](OC(F)(F)F)C5)sc4n3)cnc21 [Compound C111C, cis-1-(2-(3-methyl-3H-[1,2,3]triazolo[4,5-b]pyridin-6-yl)thieno[2,3-d]pyrimidin-6-yl)-3-(trifluoromethoxy)cyclobutanol]
0.589	3.15	Cn1nnc2cc(-c3ccc4nc([C@]5(O)C[C@H](OC(F)(F)F)C5)sc4n3)cnc21 [Compound C112C, cis-1-(5-(3-methyl-3H-[1,2,3]triazolo[4,5-b]pyridin-6-yl)[1,3]thiazolo[5,4-b]pyridin-2-yl)-3-(trifluoromethoxy)cyclobutanol]
0.43	1.95	Cn1cc2cc(-c3ncc4cc(C5(O)CC6(CC(F)(F)C6)C5)sc4n3)cnc2n1 [Compound C116, 6,6-difluoro-2-(2-(2-methyl-2H-pyrazolo[3,4-b]pyridin-5-yl)thieno[2,3-d]pyrimidin-6-yl)spiro[3.3]heptan-2-ol]
0.429	1.46	Cn1cc2cc(-c3ccc4sc([C@]5(O)C[C@@H](OC(F)(F)F)C5)cc4n3)cnc2n1 [Compound C117C, cis-1-(5-(2-methyl-2H-pyrazolo[3,4-b]pyridin-5-yl)thieno[3,2-b]pyridin-2-yl)-3-(trifluoromethoxy)cyclobutanol]
2.8	6.66	COC[C@H]1C[C@](O)(c2cc3cnc(-c4cnc5nn(C)cc5c4)nc3s2)C1 [Compound C119C, cis-3-(methoxymethyl)-1-(2-(2-methyl-2H-pyrazolo[3,4-b]pyridin-5-yl)thieno[2,3-d]pyrimidin-6-yl)cyclobutanol]
101	66.7	Cn1cc(-c2ncc3cc([C@]4(O)C[C@@H](C(F)(F)F)C4)sc3n2)cn1 [Compound C120C, cis-1-(2-(1-methyl-1H-pyrazol-4-yl)thieno[2,3-d]pyrimidin-6-yl)-3-(trifluoromethyl)cyclobutanol]
6.83	18.3	O[C@]1(c2cc3cnc(-c4cccnc4)nc3s2)C[C@H](C(F)(F)F)C1 [Compound C122C, cis-1-(2-(3-pyridinyl)thieno[2,3-d]pyrimidin-6-yl)-3-(trifluoromethyl)cyclobutanol]
0.967	6.18	O[C@]1(c2cc3cnc(-c4ccc5nccnc5c4)nc3s2)C[C@H](C(F)(F)F)C1 [Compound C123C, cis-1-(2-(6-quinoxalinyl)thieno[2,3-d]pyrimidin-6-yl)-3-(trifluoromethyl)cyclobutanol]
2.01	15.9	O[C@]1(c2cc3cnc(-c4cnc5nccn5c4)nc3s2)C[C@H](C(F)(F)F)C1 [Compound C124C, cis-1-(2-(imidazo[1,2-a]pyrimidin-6-yl)thieno[2,3-d]pyrimidin-6-yl)-3-(trifluoromethyl)cyclobutanol]
11.6	29	O[C@]1(c2cc3cnc(-c4ccnnc4)nc3s2)C[C@H](C(F)(F)F)C1 [Compound C126C, cis-1-(2-(4-pyridazinyl)thieno[2,3-d]pyrimidin-6-yl)-3-(trifluoromethyl)cyclobutanol]
537	268	Cn1cc2cc(-c3ccc4ccc(C5(O)CC(C)(C)C5)cc4n3)cnc2n1 [Compound D2, 3,3-dimethyl-1-(2-(2-methyl-2H-pyrazolo[3,4-b]pyridin-5-yl)-7-quinolinyl)cyclobutanol]
198	253	Cn1cc2cc(-c3ccc4ccc([C@]5(O)C[C@@H](C(F)F)C5)cc4n3)cnc2n1 [Compound D5C, cis-3-(difluoromethyl)-1-(2-(2-methyl-2H-pyrazolo[3,4-b]pyridin-5-yl)-7-quinolinyl)cyclobutanol]
1030	354	Cn1cc2cc(-c3ccc4cc([C@]5(O)C[C@@H](C(F)F)C5)ccc4n3)cnc2n1 [Compound D6C, cis-3-(difluoromethyl)-1-(2-(2-methyl-2H-pyrazolo[3,4-b]pyridin-5-yl)-6-quinolinyl)cyclobutanol]
